In patent US8129417B2, “Substituted octahydrocyclopenta[C]pyrrol-4-amines as calcium channel blockers” (Abbott Laboratories, priority 2008, dated 2012):

Target: human Cav2.2 (Homo sapiens, UniProt Q00975)
Test: Assessment of calcium channel activity using FLIPR (Ca2+ influx in IMR32 cells)
Format: cell-based
Conditions: 60 minute pre-incubation with compound, 2 μM nifedipine, depolarized with 80 mM KCl
In short: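 IMR32 neuroblastoma cells seeded at 1-1.2×10^5 cells/well and grown 48 h at 37 °C before FLIPR Ca2+ influx read. Percent inhibition at each concentration vs no-inhibitor activity; IC50 by non-linear sigmoidal dose-response fit.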

Chain of human Cav2.2 (Q00975 whole entry): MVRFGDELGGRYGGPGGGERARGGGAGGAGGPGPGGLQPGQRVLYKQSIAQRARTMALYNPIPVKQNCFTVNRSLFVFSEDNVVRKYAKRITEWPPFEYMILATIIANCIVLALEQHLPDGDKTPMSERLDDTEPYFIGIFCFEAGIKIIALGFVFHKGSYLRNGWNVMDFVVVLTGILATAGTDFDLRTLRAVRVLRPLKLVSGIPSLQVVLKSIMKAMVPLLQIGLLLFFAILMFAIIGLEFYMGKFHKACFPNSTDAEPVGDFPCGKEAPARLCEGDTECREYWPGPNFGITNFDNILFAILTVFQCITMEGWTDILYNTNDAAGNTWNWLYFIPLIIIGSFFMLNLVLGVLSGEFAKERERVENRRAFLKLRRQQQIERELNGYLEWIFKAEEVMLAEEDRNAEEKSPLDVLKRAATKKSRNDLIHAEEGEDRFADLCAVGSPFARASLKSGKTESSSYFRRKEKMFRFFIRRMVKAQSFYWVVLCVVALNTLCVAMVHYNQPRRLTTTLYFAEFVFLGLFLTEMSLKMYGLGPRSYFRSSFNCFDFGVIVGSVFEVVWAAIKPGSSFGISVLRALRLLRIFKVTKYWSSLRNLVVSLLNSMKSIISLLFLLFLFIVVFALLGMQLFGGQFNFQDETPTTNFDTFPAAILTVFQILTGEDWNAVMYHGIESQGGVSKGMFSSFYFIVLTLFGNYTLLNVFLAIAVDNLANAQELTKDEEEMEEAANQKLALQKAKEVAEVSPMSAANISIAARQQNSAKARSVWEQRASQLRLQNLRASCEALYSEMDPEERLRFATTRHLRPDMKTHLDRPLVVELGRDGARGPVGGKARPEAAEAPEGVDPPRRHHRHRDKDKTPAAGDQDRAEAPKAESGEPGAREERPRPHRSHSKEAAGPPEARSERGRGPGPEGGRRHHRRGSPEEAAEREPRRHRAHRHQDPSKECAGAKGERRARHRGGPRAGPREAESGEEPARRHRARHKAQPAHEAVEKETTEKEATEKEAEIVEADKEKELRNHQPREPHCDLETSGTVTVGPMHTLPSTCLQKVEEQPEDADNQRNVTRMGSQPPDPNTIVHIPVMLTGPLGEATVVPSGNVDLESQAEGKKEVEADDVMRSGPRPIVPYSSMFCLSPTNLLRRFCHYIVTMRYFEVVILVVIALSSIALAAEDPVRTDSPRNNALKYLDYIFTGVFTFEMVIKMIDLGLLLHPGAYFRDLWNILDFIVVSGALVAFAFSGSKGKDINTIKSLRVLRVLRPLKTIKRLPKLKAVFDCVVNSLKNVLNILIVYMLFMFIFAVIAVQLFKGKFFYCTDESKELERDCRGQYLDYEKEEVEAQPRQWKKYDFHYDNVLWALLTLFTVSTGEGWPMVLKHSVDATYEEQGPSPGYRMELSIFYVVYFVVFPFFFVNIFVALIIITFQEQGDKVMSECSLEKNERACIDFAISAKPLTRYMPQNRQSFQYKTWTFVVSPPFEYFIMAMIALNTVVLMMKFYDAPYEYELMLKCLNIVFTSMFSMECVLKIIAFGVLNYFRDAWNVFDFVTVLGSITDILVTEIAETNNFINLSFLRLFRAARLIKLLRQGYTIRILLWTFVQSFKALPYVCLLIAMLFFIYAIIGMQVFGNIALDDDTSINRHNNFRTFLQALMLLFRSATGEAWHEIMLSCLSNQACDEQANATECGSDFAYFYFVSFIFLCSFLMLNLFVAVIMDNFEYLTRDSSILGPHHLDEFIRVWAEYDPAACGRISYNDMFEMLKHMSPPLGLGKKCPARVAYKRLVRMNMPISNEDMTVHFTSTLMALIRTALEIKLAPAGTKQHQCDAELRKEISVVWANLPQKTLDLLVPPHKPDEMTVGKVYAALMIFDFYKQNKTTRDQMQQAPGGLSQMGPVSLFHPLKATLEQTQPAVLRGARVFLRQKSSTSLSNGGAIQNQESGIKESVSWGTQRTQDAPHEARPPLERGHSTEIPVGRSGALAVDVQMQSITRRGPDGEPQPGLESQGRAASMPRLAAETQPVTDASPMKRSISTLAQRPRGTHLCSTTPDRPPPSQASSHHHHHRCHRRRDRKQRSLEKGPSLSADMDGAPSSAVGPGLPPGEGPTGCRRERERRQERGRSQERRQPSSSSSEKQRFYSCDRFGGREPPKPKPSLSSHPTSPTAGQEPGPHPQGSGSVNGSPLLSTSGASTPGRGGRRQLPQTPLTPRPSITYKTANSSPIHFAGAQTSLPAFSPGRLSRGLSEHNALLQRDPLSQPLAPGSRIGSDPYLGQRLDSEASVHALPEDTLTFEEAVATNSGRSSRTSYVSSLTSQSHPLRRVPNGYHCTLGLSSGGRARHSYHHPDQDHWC
Chain of human Cav2.2 (P54289 25-946 partner limits assumed): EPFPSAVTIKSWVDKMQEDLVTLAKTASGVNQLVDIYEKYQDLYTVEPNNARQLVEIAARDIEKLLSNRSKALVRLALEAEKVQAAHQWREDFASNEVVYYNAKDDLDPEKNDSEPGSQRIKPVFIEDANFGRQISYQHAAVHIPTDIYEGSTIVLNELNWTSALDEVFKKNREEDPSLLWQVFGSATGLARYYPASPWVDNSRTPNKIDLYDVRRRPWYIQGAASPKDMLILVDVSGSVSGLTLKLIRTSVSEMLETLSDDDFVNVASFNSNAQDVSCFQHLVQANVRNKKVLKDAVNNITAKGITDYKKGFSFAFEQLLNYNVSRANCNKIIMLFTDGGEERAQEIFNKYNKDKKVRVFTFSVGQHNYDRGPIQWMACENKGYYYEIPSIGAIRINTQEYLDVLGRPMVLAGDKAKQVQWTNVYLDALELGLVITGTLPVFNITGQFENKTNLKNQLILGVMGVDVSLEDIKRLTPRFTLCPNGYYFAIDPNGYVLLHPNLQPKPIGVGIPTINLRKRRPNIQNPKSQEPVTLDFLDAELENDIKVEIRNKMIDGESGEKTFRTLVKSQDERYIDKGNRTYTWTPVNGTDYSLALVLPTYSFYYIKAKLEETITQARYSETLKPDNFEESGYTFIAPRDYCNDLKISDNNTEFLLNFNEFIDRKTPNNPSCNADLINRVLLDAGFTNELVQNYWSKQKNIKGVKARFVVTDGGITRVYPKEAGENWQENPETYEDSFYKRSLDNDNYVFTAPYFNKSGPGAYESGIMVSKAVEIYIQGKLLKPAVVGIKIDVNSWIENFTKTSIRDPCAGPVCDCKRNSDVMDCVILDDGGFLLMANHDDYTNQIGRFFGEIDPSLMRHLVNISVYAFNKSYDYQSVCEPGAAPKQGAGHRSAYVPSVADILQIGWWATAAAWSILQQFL
Chain of human Cav2.2 (P54289 947-1103 partner limits assumed): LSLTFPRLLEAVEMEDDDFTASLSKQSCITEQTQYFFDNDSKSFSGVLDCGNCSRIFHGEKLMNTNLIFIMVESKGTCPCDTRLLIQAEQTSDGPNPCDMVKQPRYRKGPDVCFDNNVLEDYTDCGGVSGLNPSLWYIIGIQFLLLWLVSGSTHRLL
Chain of human Cav2.2 (P54284 whole entry partner): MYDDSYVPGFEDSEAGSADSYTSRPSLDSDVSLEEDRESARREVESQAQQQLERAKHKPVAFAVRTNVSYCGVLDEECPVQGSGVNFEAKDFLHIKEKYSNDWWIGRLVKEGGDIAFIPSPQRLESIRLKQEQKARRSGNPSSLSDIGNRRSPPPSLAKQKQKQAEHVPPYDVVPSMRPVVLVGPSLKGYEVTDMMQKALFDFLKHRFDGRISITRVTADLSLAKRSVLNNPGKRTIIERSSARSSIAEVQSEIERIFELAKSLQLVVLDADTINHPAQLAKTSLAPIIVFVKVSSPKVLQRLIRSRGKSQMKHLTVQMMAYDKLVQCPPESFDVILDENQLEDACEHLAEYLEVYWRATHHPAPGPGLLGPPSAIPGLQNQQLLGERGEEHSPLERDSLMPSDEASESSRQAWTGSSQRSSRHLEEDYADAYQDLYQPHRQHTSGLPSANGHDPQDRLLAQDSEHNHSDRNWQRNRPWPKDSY

| Structure (SMILES) | IC50 |
| --- | --- |
| CCN[C@H]1CC[C@@H]2CN(S(=O)(=O)c3ccc(C(F)(F)F)cc3Cl)C[C@@H]21 [Example 293, (3aR,4S,6aS)-2-{[2-chloro-4-(trifluoromethyl)phenyl]sulfonyl}-N-ethyloctahydrocyclopenta[c]pyrrol-4-amine] | 4820 nM |
| O=[N+]([O-])c1ccccc1S(=O)(=O)N[C@H]1CC[C@@H]2CN(S(=O)(=O)c3ccc(C(F)(F)F)cc3)C[C@@H]21 [Example 299, 2-nitro-N-((3aR,4S,6aS)-2-{[4-(trifluoromethyl)phenyl]sulfonyl}octahydrocyclopenta[c]pyrrol-4-yl)benzenesulfonamide] | 3680 nM |
| CN([C@H]1CC[C@@H]2CN(S(=O)(=O)c3ccc(C(F)(F)F)cc3)C[C@@H]21)S(=O)(=O)c1ccccc1[N+](=O)[O-] [Example 300, N-methyl-2-nitro-N-((3aR,4S,6aS)-2-{[4-(trifluoromethyl)phenyl]sulfonyl}octahydrocyclopenta[c]pyrrol-4-yl)benzenesulfonamide] | 1540 nM |
| CC(C)C[C@@H](C(=O)N[C@@H]1CC[C@H]2CN(Cc3cccc(C(F)(F)F)c3)C[C@H]21)N1CCCS1(=O)=O [Example 303, (2S)-2-(1,1-dioxidoisothiazolidin-2-yl)-4-methyl-N-{(3aS,4R,6aR)-2-[3-(trifluoromethyl)benzyl]octahydrocyclopenta[c]pyrrol-4-yl}pentanamide] | 3110 nM |
| CC(C)C(C(=O)N[C@@H]1CC[C@H]2CN(Cc3cccc(C(F)(F)F)c3)C[C@H]21)C(C)C [Example 304, 2-isopropyl-3-methyl-N-{(3aS,4R,6aR)-2-[3-(trifluoromethyl)benzyl]octahydrocyclopenta[c]pyrrol-4-yl}butanamide] | 3780 nM |
| CC(C)C(C(=O)N[C@H]1CC[C@@H]2CN(Cc3cccc(C(F)(F)F)c3)C[C@@H]21)C(C)C [Example 305, 2-isopropyl-3-methyl-N-{(3aR,4S,6aS)-2-[3-(trifluoromethyl)benzyl]octahydrocyclopenta[c]pyrrol-4-yl}butanamide] | 3510 nM |
| CC(C)C[C@H](NC(=O)OC(C)(C)C)C(=O)N[C@H]1CC[C@@H]2CN(Cc3cccc(C(F)(F)F)c3)C[C@@H]21 [Example 306, tert-butyl(S)-4-methyl-1-oxo-1-((3aR,4S,6aS)-2-(3-(trifluoromethyl)benzyl)octahydrocyclopenta[c]pyrrol-4-ylamino)pentan-2-ylcarbamate] | 500 nM |
| CC(C)C[C@@H](C(=O)N[C@H]1CC[C@@H]2CN(Cc3ccc(F)cc3)C[C@@H]21)N(C)C(=O)OC(C)(C)C [Example 309, tert-butyl(S)-1-((3aR,4S,6aS)-2-(4-fluorobenzyl)octahydrocyclopenta[c]pyrrol-4-ylamino)-4-methyl-1-oxopentan-2-yl(methyl)carbamate] | 1740 nM |
| CCN(C(=O)OC(C)(C)C)[C@@H](CC(C)C)C(=O)N[C@H]1CC[C@@H]2CN(Cc3cccc(C(F)(F)F)c3)C[C@@H]21 [Example 310, tert-butyl ethyl((S)-4-methyl-1-oxo-1-((3aR,4S,6aS)-2-(3-(trifluoromethyl)benzyl)octahydrocyclopenta[c]pyrrol-4-ylamino)pentan-2-yl)carbamate] | 680 nM |
| CCC[C@@H](C(=O)N[C@H]1CC[C@@H]2CN(Cc3cccc(C(F)(F)F)c3)C[C@@H]21)N(C)C(=O)OC(C)(C)C [Example 313, tert-butyl methyl((S)-1-oxo-1-((3aR,4S,6aS)-2-(3-(trifluoromethyl)benzyl)octahydrocyclopenta[c]pyrrol-4-ylamino)pentan-2-yl)carbamate] | 2100 nM |
| CC(C)C[C@@H](C(=O)N[C@@H]1CC[C@H]2CN(S(=O)(=O)c3cccc(C(F)(F)F)c3)C[C@H]21)N1CCOCC1 [Example 319, (2S)-4-methyl-2-morpholin-4-yl-N-((3aS,4R,6aR)-2-{[3-(trifluoromethyl)phenyl]sulfonyl}octahydrocyclopenta[c]pyrrol-4-yl)pentanamide] | 1210 nM |
| CC(C)C[C@@H](C(=O)N[C@@H]1CC[C@H]2CN(S(=O)(=O)c3cccc(C(F)(F)F)c3)C[C@H]21)N1CCCC1 [Example 320, (2S)-4-methyl-2-pyrrolidin-1-yl-N-((3aS,4R,6aR)-2-{[3-(trifluoromethyl)phenyl]sulfonyl}octahydrocyclopenta[c]pyrrol-4-yl)pentanamide] | 700 nM |
| CC(C)C[C@@H](C(=O)N[C@@H]1CC[C@H]2CN(S(=O)(=O)c3cccc(C(F)(F)F)c3)C[C@H]21)N1CCCCC1 [Example 321, (2S)-4-methyl-2-piperidin-1-yl-N-((3aS,4R,6aR)-2-{[3-(trifluoromethyl)phenyl]sulfonyl}octahydrocyclopenta[c]pyrrol-4-yl)pentanamide] | 440 nM |

More lines, now with the values ahead:

| IC50 | Structure (SMILES) |
| --- | --- |
| 2140 nM | CCN(C(=O)[C@H](CC(C)(C)C)N(C)C(=O)OC(C)(C)C)[C@H]1CC[C@@H]2CN(S(=O)(=O)c3ccc(C(F)(F)F)cc3)C[C@@H]21 [Example 296, tert-butyl(S)-1-(ethyl((3aR,4S,6aS)-2-(4-(trifluoromethyl)phenylsulfonyl)octahydrocyclopenta[c]pyrrol-4-yl)amino)-4,4-dimethyl-1-oxopentan-2-yl(methyl)carbamate] |
| 7880 nM | CCCN(C(=O)[C@H](CC(C)(C)C)N(C)C(=O)OC(C)(C)C)[C@H]1CC[C@@H]2CN(S(=O)(=O)c3ccc(C(F)(F)F)cc3)C[C@@H]21 [Example 297, tert-butyl(S)-4,4-dimethyl-1-oxo-1-(propyl((3aR,4S,6aS)-2-(4-(trifluoromethyl)phenylsulfonyl)octahydrocyclopenta[c]pyrrol-4-yl)amino)pentan-2-yl(methyl)carbamate] |
| 1140 nM | CN(C(=O)OC(C)(C)C)[C@@H](CC(C)(C)C)C(=O)N(C)[C@H]1CC[C@@H]2CN(S(=O)(=O)c3ccc(C(F)(F)F)cc3)C[C@@H]21 [Example 302, tert-butyl(S)-4,4-dimethyl-1-(methyl((3aR,4S,6aS)-2-(4-(trifluoromethyl)phenylsulfonyl)octahydrocyclopenta[c]pyrrol-4-yl)amino)-1-oxopentan-2-yl(methyl)carbamate] |
| 1540 nM | CC(C)C[C@@H](C(=O)N[C@H]1CC[C@@H]2CN(Cc3cccc(C(F)(F)F)c3)C[C@@H]21)N(C)C(=O)OC(C)(C)C [Example 307, tert-butyl methyl((S)-4-methyl-1-oxo-1-((3aR,4S,6aS)-2-(3-(trifluoromethyl)benzyl)octahydrocyclopenta[c]pyrrol-4-ylamino)pentan-2-yl)carbamate] |
| 2150 nM | CCC[C@@H](C(=O)N[C@H]1CC[C@@H]2CN(Cc3ccc(C(F)(F)F)cc3)C[C@@H]21)N(C)C(=O)OC(C)(C)C [Example 314, tert-butyl methyl((S)-1-oxo-1-((3aR,4S,6aS)-2-(4-(trifluoromethyl)benzyl)octahydrocyclopenta[c]pyrrol-4-ylamino)pentan-2-yl)carbamate] |
| 900 nM | CCC[C@@H](C(=O)N[C@@H]1CC[C@H]2CN(Cc3ccc(C(F)(F)F)cc3)C[C@H]21)N(C)C(=O)OC(C)(C)C [Example 317, tert-butyl methyl((S)-1-oxo-1-((3aS,4R,6aR)-2-(4-(trifluoromethyl)benzyl)octahydrocyclopenta[c]pyrrol-4-ylamino)pentan-2-yl)carbamate] |
| 700 nM | CC(C)C[C@@H](C(=O)N[C@H]1CC[C@@H]2CN(S(=O)(=O)c3cccc(C(F)(F)F)c3)C[C@@H]21)N(C)C(=O)OC(C)(C)C [Example 322, tert-butyl methyl((S)-4-methyl-1-oxo-1-((3aR,4S,6aS)-2-(3-(trifluoromethyl)phenylsulfonyl)octahydrocyclopenta[c]pyrrol-4-ylamino)pentan-2-yl)carbamate] |
| 200 nM | CCN(C(=O)OC(C)(C)C)[C@@H](CC(C)C)C(=O)N[C@H]1CC[C@@H]2CN(S(=O)(=O)c3cccc(C(F)(F)F)c3)C[C@@H]21 [Example 323, tert-butyl ethyl((S)-4-methyl-1-oxo-1-((3aR,4S,6aS)-2-(3-(trifluoromethyl)phenylsulfonyl)octahydrocyclopenta[c]pyrrol-4-ylamino)pentan-2-yl)carbamate] |
| 690 nM | CC(C)C[C@@H](C(=O)N[C@@H]1CC[C@H]2CN(S(=O)(=O)c3ccc(C(F)(F)F)cc3)C[C@H]21)N(C)C(=O)OC(C)(C)C [Example 324, tert-butyl methyl((S)-4-methyl-1-oxo-1-((3aS,4R,6aR)-2-(4-(trifluoromethyl)phenylsulfonyl)octahydrocyclopenta[c]pyrrol-4-ylamino)pentan-2-yl)carbamate] |
| 250 nM | CC(C)C[C@@H](C(=O)N[C@@H]1CC[C@H]2CN(S(=O)(=O)c3cccc(C(F)(F)F)c3)C[C@H]21)N(C)C(=O)OC(C)(C)C [Example 325, tert-butyl methyl((S)-4-methyl-1-oxo-1-((3aS,4R,6aR)-2-(3-(trifluoromethyl)phenylsulfonyl)octahydrocyclopenta[c]pyrrol-4-ylamino)pentan-2-yl)carbamate] |
| 1460 nM | CC(C)C[C@@H](C(=O)N[C@@H]1CC[C@H]2CN(S(=O)(=O)c3ccc(F)cc3)C[C@H]21)N(C)C(=O)OC(C)(C)C [Example 326, tert-butyl(S)-1-((3aS,4R,6aR)-2-(4-fluorophenylsulfonyl)octahydrocyclopenta[c]pyrrol-4-ylamino)-4-methyl-1-oxopentan-2-yl(methyl)carbamate] |
| 1830 nM | CC(C)C[C@@H](C(=O)N[C@@H]1CC[C@H]2CN(S(=O)(=O)c3ccc(F)c(C(F)(F)F)c3)C[C@H]21)N(C)C(=O)OC(C)(C)C [Example 327, tert-butyl(S)-1-((3aS,4R,6aR)-2-(4-fluoro-3-(trifluoromethyl)phenylsulfonyl)octahydrocyclopenta[c]pyrrol-4-ylamino)-4-methyl-1-oxopentan-2-yl(methyl)carbamate] |
| 2600 nM | CC(C)C[C@@H](C(=O)N[C@@H]1CC[C@@H]2CN(S(=O)(=O)c3ccc(C(F)(F)F)cc3)C[C@@H]21)N(C)C(=O)OC(C)(C)C [Example 329, tert-butyl methyl((S)-4-methyl-1-oxo-1-((3aR,4R,6aS)-2-(4-(trifluoromethyl)phenylsulfonyl)octahydrocyclopenta[c]pyrrol-4-ylamino)pentan-2-yl)carbamate] |
